Assay results from patent US3958013A, “Halogenated cyclobutyl ether anesthetics” (W. R. Grace & Co., priority 1975, dated 1976).

Legend:
[1] = cited from earlier work; for anesthetic properties / utility: prior art statement (fluorocyclobutanes: Larsen 1969 review)
[2] = standard test for evaluation of inhalation anesthetics in mice (rotating drum, 10 min exposure); type: in vivo; details: mouse, in vivo, inhaled or intranasal; calculated from AC50 and LC50 minimum concentrations; read-out: AI (anesthetic index)
Method: (§1) In this test, mice were exposed to the compound for a period of 10 minutes in a rotating drum. Observations were made of the pinch reflex, the corneal reflex and the return of the righting reflex. At least four graded doses were employed to determine the minimum concentration required to anesthetized 50% of the mice (AC50) and the minimum concentration required to kill 50% of the mice (LC50). The anesthetic index (AI) was then calculated from these minimum concentrations.

[3] = system: mice; assay: as above; type: in vivo; details: mice, inhalation, 10 minutes exposure, rotating drum; % volume
Method: as §1

Compound | anesthetic properties / utility [1] | selectivity ratio at 10 min [2] | LC50 (minimum concentration required to kill 50% of the mice) [3] | further results
FC1C(F)C(F)(F)C1(F)F (centres unmarked) [1,2-dihydrohexafluoro-] | possesses anesthetic properties | – | – | –
COC1(F)C(F)(F)C(F)(F)C1(F)Br (centres unmarked) [Example 3, 1-bromo-2-methoxy-1,2,3,3,4,4-hexafluorocyclobutane] | – | > 2.5 | > 2.5% | –
C1CC1 [cyclopropane] | effective if inflammable anesthetic | – | – | –
FC1(F)C(F)(F)C(F)(F)C1(F)F [octafluoro-] | inactive | – | – | –
C1CCCC1 [cyclopentane] | no medical utility | – | – | –
COC1CC(F)(F)C1(F)Cl (centres unmarked) [Example 2, 1-chloro-2methoxy-1,4,4-trifluorocyclobutane] | – | > 2 | > 2% | –
FC1(F)C(F)(F)C(F)(Cl)C1(F)Cl (centres unmarked) [1,2-dichlorohexafluoro-] | – | – | – | toxicity ([1]; Larsen 1969 review): toxic
COC1(F)C(F)(F)C(F)(F)C1(F)Cl (centres unmarked) [Example 1, 1-chloro-2-methoxy-1,2,3,3,4,4-hexafluorocyclobutane] | – | ~2 | 7-8% | –
